Source: PubChem BioAssay (NCI)
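The compound was tested at five concentrations on cells cultured in 96-well plates, with a 48-hour exposure period. At the GI50, growth is halved. TGI marks complete inhibition of growth.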

Key:
Test in all cases: growth of human tumour cells (NCI), 48 h
[1] = tested on: KM12 colon
[2] = tested on: OVCAR-5 ovarian
[3] = tested on: ACHN renal
[4] = tested on: SR leukemia
[5] = tested on: RPMI-8226 leukemia
[6] = tested on: SK-MEL-2 melanoma
[7] = tested on: COLO 205 colon
[8] = tested on: SK-MEL-5 melanoma
[9] = tested on: HOP-62 NSCLC
[10] = tested on: RXF 393 renal
[11] = tested on: NCI-H226 lung
[12] = tested on: A549 NSCLC
[13] = tested on: HCC-2998 colon
[14] = tested on: EKVX NSCLC
[15] = tested on: MOLT-4 leukemia
[16] = tested on: 786-0 renal
[17] = tested on: SK-OV-3 ovarian
[18] = tested on: K-562 leukemia
[19] = tested on: SNB-75 CNS
[20] = tested on: HT29 colon
[21] = tested on: NCI-H460 lung
[22] = tested on: NCI-H23 lung
[23] = tested on: IGROV1 ovarian
[24] = tested on: CCRF-CEM leukemia
[25] = tested on: SN12C renal
[26] = tested on: NCI/ADR-RES ovarian
[27] = tested on: DU-145 prostate
[28] = tested on: M14 melanoma
[29] = tested on: U251 CNS
[30] = tested on: SW-620 colon
[31] = tested on: MALME-3M melanoma
[32] = tested on: HL-60(TB) leukemia
[33] = tested on: OVCAR-3 ovarian
[34] = tested on: T-47D breast
[35] = tested on: SF-539 CNS
[36] = tested on: MDA-MB-468 breast
[37] = tested on: MCF7 breast
[38] = tested on: HS 578T breast
[39] = tested on: OVCAR-8 ovarian
[40] = tested on: PC-3 prostate
[41] = tested on: MDA-MB-231 breast
[42] = tested on: UACC-257 melanoma
[43] = tested on: A498 renal
[44] = tested on: LOX IMVI melanoma
[45] = tested on: TK-10 renal
[46] = tested on: HOP-92 NSCLC
[47] = tested on: SF-268 CNS
[48] = tested on: UACC-62 melanoma
[49] = tested on: NCI-H522 lung
[50] = tested on: HCT-15 colon
[51] = tested on: OVCAR-4 ovarian
[52] = tested on: SF-295 CNS
[53] = tested on: SNB-19 CNS
[54] = tested on: UO-31 renal
[55] = tested on: CAKI-1 renal
[56] = tested on: SK-MEL-28 melanoma
[57] = tested on: MDA-MB-435
[58] = tested on: HCT-116 colon
[59] = tested on: BT-549 breast

Compound: NS(=O)(=O)c1ccc(N=Nc2c(O)n(CC(=O)Nc3ccccc3Cl)c3ccccc23)cc1
- GI50 [1]: 2.93 µM
- TGI [1]: 12 µM
- GI50 [2]: 4.3 µM
- TGI [2]: 22.7 µM
- GI50 [3]: 2.21 µM
- TGI [3]: 6.89 µM
- GI50 [4]: 2.82 µM
- TGI [4]: > 100 µM
- GI50 [5]: 3.06 µM
- TGI [5]: > 100 µM
- GI50 [6]: 3.95 µM
- TGI [6]: 21.1 µM
- GI50 [7]: 2.05 µM
- TGI [7]: 4.14 µM
- GI50 [8]: 2.12 µM
- TGI [8]: 5.11 µM
- GI50 [9]: 2.75 µM
- TGI [9]: 12.7 µM
- GI50 [10]: 2.14 µM
- TGI [10]: 5.74 µM
- GI50 [11]: 2.5 µM
- TGI [11]: 8.45 µM
- GI50 [12]: 2.91 µM
- TGI [12]: 10.3 µM
- GI50 [13]: 2.38 µM
- TGI [13]: 6.35 µM
- GI50 [14]: 4.09 µM
- TGI [14]: 36.1 µM
- GI50 [15]: 3.19 µM
- TGI [15]: 31.8 µM
- GI50 [16]: 3.26 µM
- TGI [16]: 12 µM
- GI50 [17]: 2.54 µM
- TGI [17]: 8.74 µM
- GI50 [18]: 3.66 µM
- TGI [18]: > 100 µM
- GI50 [19]: 2.01 µM
- TGI [19]: 14.4 µM
- GI50 [20]: 2.04 µM
- TGI [20]: 4.11 µM
- GI50 [21]: 3.1 µM
- TGI [21]: 10.8 µM
- GI50 [22]: 3.19 µM
- TGI [22]: 12.2 µM
- GI50 [23]: 4.59 µM
- TGI [23]: 19.1 µM
- GI50 [24]: 3.58 µM
- TGI [24]: 23.2 µM
- GI50 [25]: 3.03 µM
- TGI [25]: 16.1 µM
- GI50 [26]: 3.93 µM
- TGI [26]: 50.3 µM
- GI50 [27]: 5.34 µM
- TGI [27]: 23.1 µM
- GI50 [28]: 3.33 µM
- TGI [28]: 30.5 µM
- GI50 [29]: 2.81 µM
- TGI [29]: 9.62 µM
- GI50 [30]: 2.93 µM
- TGI [30]: 10.9 µM
- GI50 [31]: 1.89 µM
- TGI [31]: 6.91 µM
- GI50 [32]: 2.38 µM
- TGI [32]: 7.68 µM
- GI50 [33]: 2.56 µM
- TGI [33]: 11.5 µM
- GI50 [34]: 2.95 µM
- TGI [34]: 34.5 µM
- GI50 [35]: 1.7 µM
- TGI [35]: 4.17 µM
- GI50 [36]: 1.81 µM
- TGI [36]: 3.8 µM
- GI50 [37]: 1.94 µM
- TGI [37]: 4.63 µM
- GI50 [38]: 3.23 µM
- TGI [38]: > 100 µM
- GI50 [39]: 2.49 µM
- TGI [39]: 6.85 µM
- GI50 [40]: 2.76 µM
- TGI [40]: 29.2 µM
- GI50 [41]: 3.34 µM
- TGI [41]: 16 µM
- GI50 [42]: 2.89 µM
- TGI [42]: 9.83 µM
- GI50 [43]: 3.64 µM
- TGI [43]: 16 µM
- GI50 [44]: 3.28 µM
- TGI [44]: 15.1 µM
- GI50 [45]: 10.8 µM
- TGI [45]: 34.5 µM
- GI50 [46]: 2.15 µM
- TGI [46]: 6.45 µM
- GI50 [47]: 3.19 µM
- TGI [47]: 21.9 µM
- GI50 [48]: 1.81 µM
- TGI [48]: 5.88 µM
- GI50 [49]: 2.78 µM
- TGI [49]: 15.3 µM
- GI50 [50]: 3 µM
- TGI [50]: 15.4 µM
- GI50 [51]: 4.57 µM
- TGI [51]: 55.5 µM
- GI50 [52]: 1.67 µM
- TGI [52]: 3.58 µM
- GI50 [53]: 4.74 µM
- TGI [53]: 24.7 µM
- GI50 [54]: 1.72 µM
- TGI [54]: 6.81 µM
- GI50 [55]: 1.89 µM
- TGI [55]: 8.37 µM
- GI50 [56]: 2.96 µM
- TGI [56]: 12.5 µM
- GI50 [57]: 2.61 µM
- TGI [57]: 19.4 µM
- GI50 [58]: 2.94 µM
- TGI [58]: 12.4 µM
- GI50 [59]: 2.26 µM
- TGI [59]: 6.79 µM
